Results published in patent publication US5545547A, “Enzymes as agricultural chemical adjuvants” (priority 1992, dated 1996).

Experiments:
Format in all cases: in vivo
[1] = test system: Alfalfa; experiment: Greenhouse multispecies herbicide screen with/without P. mendocina enzyme
Procedure: (§1) Several plant species including weeds and crops are used in these experiments.
A number of herbicides from various chemical classes were compared in a multispecies screen for percent chlorosis, necrosis and vigor reduction both with and without application of the enzyme from Pseudomonas mendocina ATCC 53552 described earlier. […] Two different enzyme concentrations were used: 0.5 mg/ml (HE) and 0.05 mg/ml (LE) and applied at the rate of 40 gallons/acre. All spraying solutions were at pH 10 and contained 100 mm sodium phosphate each. […] All the experiments were carried out in a greenhouse.
(§2) Chlorosis--figures represent percent of plants showing chlorosis.
(§3) Necrosis--figures represent percent of plants showing necrosis.
(§4) Vigor--figures represent percent of plants showing decreased vigor.
(§5) Phytotoxicity--figures represent the average percent of chlorosis, necrosis, and vigor for a given sample.

[2] = test system: Giant Fox Tail; experiment: as above
Procedure: as §1
A number of herbicides from various chemical classes were compared in a multispecies screen for percent chlorosis, necrosis and vigor reduction both with and without application of the enzyme from Pseudomonas mendocina ATCC 53552 described earlier. […] Two different enzyme concentrations were used: 0.5 mg/ml (HE) and 0.05 mg/ml (LE) and applied at the rate of 40 gallons/acre. All spraying solutions were at pH 10 and contained 100 mm sodium phosphate each. Ratings were done at 6 and 12 days after the treatment. All the experiments were carried out in a greenhouse.
as §2, §3, §4, §5

[3] = test system: Giant Fox Tail; experiment: as above; settings: HYVAR 18%, two weeks after treatment
[4] = test system: Beefsteak Tomato seedlings; experiment: HYVAR uptake by whole plants, effect of macerating enzymes (GC219); parameters: key: -=No phytotoxicity; +=Some phytotoxicity seen in area of treatment.; ++=Phytotoxicity seen outside area of treatment
Procedure: 13-16 day old Beefsteak Tomato seedlings were treated with solutions of HYVAR herbicides [5-bromo-6-methyl-3-(1-methylpropyl)-2,4-(1H,3H)-pyrimidinedione] and GC219. Solutions of Hyvar and GC219 were made up on DI H2 O and 1% ethanol and adjusted with 0.1N HCL to a final pH of 4.0. 10 ul of solution was applied to each cotyledon and 15 ul to each secondary pentafoliate leaflet. 10 tomato seedlings were used for each test solutions. Observations were made daily after treatment for 4 days.
HYVAR herbicide [5-bromo-6-methyl-3-(1-methylpropyl)-2,4-(1H,3H)-pyrimidinedione] was diluted 1:200 or 1:400 for each experiment.

[5] = HYVAR 10% dose, High Enzyme, one week after treatment
[6] = HYVAR 10% dose, Low Enzyme, one week after treatment
[7] = HYVAR 10% dose, No Enzyme, one week after treatment
[8] = HYVAR 18%, High Enzyme, two weeks after treatment
[9] = HYVAR 18%, Low Enzyme, two weeks after treatment
[10] = HYVAR 18%, No Enzyme, two weeks after treatment
[11] = HYVAR 40% dose, High Enzyme, one week after treatment
[12] = HYVAR 40% dose, Low Enzyme, one week after treatment
[13] = HYVAR 40% dose, No Enzyme, one week after treatment
[14] = HYVAR 100% dose, No Enzyme, one week after treatment

With `CCC(C)n1c(=O)[nH]c(C)c(Br)c1=O` (stereo not drawn) [HYVAR, 5-bromo-6-methyl-3-(1-methylpropyl)-2,4-(1H,3H)-pyrimidinedione] the “CHL (chlorosis)” value [1, 5] was 18%, the “NEC (necrosis)” value [1, 5] was 0% and the “PHY (phytotoxicity)” value [1, 5] was 10%. For the same compound, the “VIG (vigor)” value [1, 5] was 10%, the “CHL (chlorosis)” value [1, 6] was 50% and the “NEC (necrosis)” value [1, 6] was 5%. For the same compound, the “PHY (phytotoxicity)” value [1, 6] was 28%, the “VIG (vigor)” value [1, 6] was 30% and the “CHL (chlorosis)” value [1, 7] was 10%. The “NEC (necrosis)” value [1, 7] was 5%, the “PHY (phytotoxicity)” value [1, 7] was 8% and the “VIG (vigor)” value [1, 7] was 10%. The “CHL (chlorosis)” value [1, 8] was 100%, the “NEC (necrosis)” value [1, 8] was 100% and the “PHY (phytotoxicity)” value [1, 8] was 100%. The “VIG (vigor)” value [1, 8] was 100%, the “CHL (chlorosis)” value [1, 9] was 100% and the “NEC (necrosis)” value [1, 9] was 100%. The “PHY (phytotoxicity)” value [1, 9] was 100%, the “VIG (vigor)” value [1, 9] was 100% and the “CHL (chlorosis)” value [1, 10] was 55%. For the same compound, the “NEC (necrosis)” value [1, 10] was 58%, the “PHY (phytotoxicity)” value [1, 10] was 57% and the “VIG (vigor)” value [1, 10] was 58%. For the same compound, the “CHL (chlorosis)” value [1, 11] was 30%, the “NEC (necrosis)” value [1, 11] was 13% and the “PHY (phytotoxicity)” value [1, 11] was 24%. For the same compound, the “VIG (vigor)” value [1, 11] was 30%, the “CHL (chlorosis)” value [1, 12] was 30% and the “NEC (necrosis)” value [1, 12] was 30%. For the same compound, the “PHY (phytotoxicity)” value [1, 12] was 37%, the “VIG (vigor)” value [1, 12] was 50% and the “CHL (chlorosis)” value [1, 13] was 25%. For the same compound, the “NEC (necrosis)” value [1, 13] was 5%, the “PHY (phytotoxicity)” value [1, 13] was 15% and the “VIG (vigor)” value [1, 13] was 15%. For the same compound, the “CHL (chlorosis)” value [1, 14] was 50%, the “NEC (necrosis)” value [1, 14] was 10% and the “PHY (phytotoxicity)” value [1, 14] was 37%. For the same compound, the “VIG (vigor)” value [1, 14] was 50%, the “CHL (chlorosis)” value [2, 5] was 18% and the “NEC (necrosis)” value [2, 5] was 18%. For the same compound, the “PHY (phytotoxicity)” value [2, 5] was 22%, the “VIG (vigor)” value [2, 5] was 30% and the “CHL (chlorosis)” value [2, 6] was 50%. The “NEC (necrosis)” value [2, 6] was 30%, the “PHY (phytotoxicity)” value [2, 6] was 43% and the “VIG (vigor)” value [2, 6] was 50%. The “CHL (chlorosis)” value [2, 7] was 40%, the “NEC (necrosis)” value [2, 7] was 30% and the “PHY (phytotoxicity)” value [2, 7] was 40%. For the same compound, the “VIG (vigor)” value [2, 7] was 50%, the “NEC (necrosis)” value [2, 8] was 75% and the “PHY (phytotoxicity)” value [2, 8] was 75%. For the same compound, the “VIG (vigor)” value [2, 8] was 75%, the “CHL (chlorosis)” value [2, 9] was 73% and the “PHY (phytotoxicity)” value [2, 9] was 73%. The “CHL (chlorosis)” value [2, 10] was 65%, the “NEC (necrosis)” value [2, 10] was 63% and the “PHY (phytotoxicity)” value [2, 10] was 64%. For the same compound, the “VIG (vigor)” value [2, 10] was 63%, the “CHL (chlorosis)” value [2, 11] was 38% and the “NEC (necrosis)” value [2, 11] was 50%. The “PHY (phytotoxicity)” value [2, 11] was 30%, the “VIG (vigor)” value [2, 11] was 63% and the “CHL (chlorosis)” value [2, 12] was 43%. For the same compound, the “NEC (necrosis)” value [2, 12] was 65%, the “PHY (phytotoxicity)” value [2, 12] was 57% and the “VIG (vigor)” value [2, 12] was 63%. The “CHL (chlorosis)” value [2, 13] was 50%, the “NEC (necrosis)” value [2, 13] was 38% and the “PHY (phytotoxicity)” value [2, 13] was 48%. The “VIG (vigor)” value [2, 13] was 55%, the “CHL (chlorosis)” value [2, 14] was 60% and the “NEC (necrosis)” value [2, 14] was 60%. The “PHY (phytotoxicity)” value [2, 14] was 65%, the “VIG (vigor)” value [2, 14] was 75% and the “CHL (chlorosis)” value ([3]; High Enzyme) was 75%. The “NEC (necrosis)” value ([3]; Low Enzyme) was 73%, the “VIG (vigor)” value ([3]; Low Enzyme) was 73% and the “PHYTOTOXICITY RATING” value ([4]; HYVAR (1:400 dilution), Day 2) was “-”. The “PHYTOTOXICITY RATING” value ([4]; HYVAR (1:400 dilution), Day 3) was “-”, the “PHYTOTOXICITY RATING” value ([4]; HYVAR alone (1:200 dilution), Day 1) was “-” and the “PHYTOTOXICITY RATING” value ([4]; HYVAR alone (1:200 dilution), Day 2) was “+”. For the same compound, the “PHYTOTOXICITY RATING” value ([4]; first experiment (1:200), HYVAR + 6.28 mg/ml GC219, Day 1) was “+”, the “PHYTOTOXICITY RATING” value ([4]; first experiment (1:200), HYVAR + 6.28 mg/ml GC219, Day 2) was “++” and the “PHYTOTOXICITY RATING” value ([4]; second experiment (1:400), HYVAR + 6.28 mg/ml GC219, Day 2) was “+”. The “PHYTOTOXICITY RATING” value ([4]; second experiment (1:400), HYVAR + 6.28 mg/ml GC219, Day 3) was “++”, the “PHYTOTOXICITY RATING” value ([4]; second experiment (1:400), HYVAR + 12.6 mg/ml GC219, Day 2) was “++” and the “PHYTOTOXICITY RATING” value ([4]; second experiment (1:400), HYVAR + 12.6 mg/ml GC219, Day 3) was “++”.
